The text below walks through data of patent US20070037831A1, “Methods of using PDE 5 inhibitors for the treatment of congestive heart failure” (priority 2004, published 2007).

Some results are limits rather than exact numbers.

The target in one assay is PDE V (Homo sapiens, UniProt O76074). As to the kind of experiment: PDE V inhibition (PDE V IC50). It counts as biochemical.
Settings: not given
Regarding `CCn1c(=O)c2c(nc(NC3CCCCC3)n2Cc2ccc(O)cc2)n(CC(C)C)c1=O` [Compound 65], the IC50 was ≤ 5 nM. Same read-out and setting: to `CCn1c(=O)c2c(nc(NC3CCCCC3)n2Cc2ccc(OC)cc2)n(CC)c1=O` [Compound 61] belongs ≤ 5 nM. The same measure, in the same setting: to `CCCn1c(=O)n(CC)c(=O)c2c1nc(NC1CCCCC1)n2Cc1ccc(OC)c(Cl)c1` [Compound 171] belongs 5 to 10 nM; to `CCn1c(=O)c2c(nc(NC3CCCCC3)n2Cc2ccc(OC(C)=O)cc2)n(CC)c1=O` [Compound 89], 5 to 10 nM; to `Cn1c(=O)[nH]c(=O)c2c1nc(NC1CCCCC1)n2Cc1ccc(O)cc1` [Compound 71], 15 to 100 nM. On the same count and under the same terms, with `CCn1c(=O)c2c(nc(N[C@@H]3CCC[C@@H]3O)n2Cc2ccccc2)n(CC)c1=O` [Compound 14] the figure was 15 to 100 nM; with `COc1cccc(Cn2c(NC3CCCCC3)nc3c2c(=O)n(C)c(=O)n3C)c1` [Compound 141], 15 to 100 nM; with `CCn1c(=O)c2c(nc(NC3CCCCC3)n2Cc2ccc(S(N)(=O)=O)c(Cl)c2)n(CCO)c1=O` [Compound 183], 5 to 10 nM.

On to `COc1ccc(Cn2c(NC3CCCCCC3)nc3c2c(=O)n(C)c(=O)n3C)cc1` [Compound 43], for which the IC50 is 15 to 100 nM. On the same count and under the same terms, to `CCn1c(=O)c2c(nc(NC3CCCCC3)n2Cc2cc3c(cc2Cl)OCO3)n(CCO)c1=O` [Compound 108] belongs 10 to 15 nM; to `CCCn1c(=O)n(CC)c(=O)c2c1nc(NC1CCCCC1)n2Cc1ccccc1F` [Compound 173], 15 to 100 nM; to `Cn1c(=O)c2c(nc(NC3CCCCC3)n2Cc2ccccc2F)n(C)c1=O` [Compound 136], 10 to 15 nM. Same read-out and setting: with `CCn1c(=O)c2c(nc(NC3CCCC3O)n2Cc2ccccc2)n(CC(C)C)c1=O` (centres unmarked) [Compound 58] the figure was 15 to 100 nM; with `COc1ccc(Cn2c(NC3CCC3)nc3c2c(=O)n(C)c(=O)n3C)cc1` [Compound 42], 15 to 100 nM; with `CCn1c(=O)[nH]c2nc(NC3CCCCC3)n(Cc3ccc(O)cc3)c2c1=O` [Compound 94], 10 to 15 nM.

Compound `CCCn1c(=O)n(CC)c(=O)c2c1nc(NC1CCCCC1)n2Cc1ccc(O)c(Cl)c1` [Compound 172] gave an IC50 of 5 to 10 nM. The same measure, in the same setting: with `CCn1c(=O)c2c(nc(N[C@@H]3CCC[C@H]3O)n2Cc2cc(Br)c3c(c2)CCO3)n(CCO)c1=O` [Compound 128] the figure was 15 to 100 nM; with `CCn1c(=O)c2c(nc(NC3CCCC3)n2Cc2ccc(OC)cc2)n(C)c1=O` [Compound 24], 10 to 15 nM. Still for that read-out and setting: to `Cn1c(=O)c2c(nc(NC3CC4CCC3C4)n2Cc2ccc(O)cc2)n(C)c1=O` (centres unmarked) [Compound 77] belongs 15 to 100 nM. Still for that read-out and setting: to `CCn1c(=O)c2c(nc(NC3(CO)CC=CC3)n2Cc2ccc(OC)cc2)n(CC)c1=O` [Compound 62] belongs ≤ 5 nM; to `CCn1c(=O)c2c(nc(NC3CCCCC3)n2Cc2ccc(OC)cc2)n(C)c1=O` [Compound 23], 10 to 15 nM; to `CCn1c(=O)c2c(nc(NC3CCCCC3)n2Cc2cccc(Cl)c2)n(CC)c1=O` [Compound 120], 15 to 100 nM. With `CCn1c(=O)c2c(nc(NC3CCS(=O)(=O)CC3)n2Cc2ccc(OC)c(Br)c2)n(CC)c1=O` [Compound 194], the IC50 lay within 15 to 100 nM.

Consider `CCn1c(=O)c2c(nc(NC3CCCC3)n2Cc2ccc(OC)cc2)n(CC)c1=O` [Compound 60], for which the IC50 is ≤ 5 nM. Still for that read-out and setting: with `CCn1c(=O)c2c(nc(N[C@@H]3CCC[C@H]3O)n2Cc2ccc(O)c(Cl)c2)n(CCO)c1=O` [Compound 115] the figure was 5 to 10 nM; with `COc1ccc(Cn2c(NC3CCCCC3)nc3c2c(=O)n(C)c(=O)n3C)cc1` [Compound 33], 10 to 15 nM; with `CCn1c(=O)c2c(nc(NC3CCCCC3)n2Cc2ccccc2)n(CCO)c1=O` [Compound 101], 15 to 100 nM.

The target of the next assay is T1, type V phosphodiesterase (Homo sapiens, UniProt O76074).
T1 construct: endogenous in cells; host or cells: vasculature of patients with heart failure (in vivo)
Assay: not given
Particulars: patients with heart failure, acute; cited from earlier work.
With `CCCc1nn(C)c2c(=O)[nH]c(-c3cc(S(=O)(=O)N4CCN(C)CC4)ccc3OCC)nc12` [Sildenafil], the endothelium dependent vasodilation result is given as “acutely enhance endothelium dependent vasodilation”.

In a further assay the target is T2, ETA receptor (Homo sapiens, UniProt P25101).
T2 sequence (P25101 21-427): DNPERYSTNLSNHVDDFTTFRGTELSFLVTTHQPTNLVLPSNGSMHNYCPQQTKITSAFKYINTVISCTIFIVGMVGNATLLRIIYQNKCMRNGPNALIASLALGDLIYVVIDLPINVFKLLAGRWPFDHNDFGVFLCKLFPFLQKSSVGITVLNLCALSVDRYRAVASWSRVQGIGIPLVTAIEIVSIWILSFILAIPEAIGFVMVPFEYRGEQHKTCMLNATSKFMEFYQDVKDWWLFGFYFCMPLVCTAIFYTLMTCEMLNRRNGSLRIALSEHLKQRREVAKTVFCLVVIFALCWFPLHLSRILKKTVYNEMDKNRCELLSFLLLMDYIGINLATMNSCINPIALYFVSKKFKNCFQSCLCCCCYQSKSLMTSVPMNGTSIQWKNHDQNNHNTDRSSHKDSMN
Assay: not given
Particulars: among the ETA receptor antagonists; cited from earlier work.
With `Cc1cc2c(cc1CC(=O)c1sccc1S(=O)(=O)Nc1onc(C)c1Cl)OCO2` [sitaxsentan], the “selectivity over ETB” value is reported as “particularly selective over ETB”.

For orientation: IC50 means the concentration at which inhibition is half-maximal. Read a high IC50 as lower potency.
